Test results published in ChEMBL document CHEMBL1150286, “Discovery and optimization of triazolopyridazines as potent and selective inhibitors of the c-Met kinase” (J Med Chem, 2008).

Assays:
[1] = Clearance in rat liver microsomes; assay type: ADME, Microsome
[2] = AUC (0 to infinity) in Sprague-Dawley rat at 2 mg/kg, po; assay type: ADME, organism-based; design: time infinity, dose 2 mg/kg, route oral; details: plasma
[3] = Bioavailability in Sprague-Dawley rat at 2 mg/kg, po; assay type: ADME, organism-based; details: in vivo
[4] = Half life in Sprague-Dawley rat at 0.25 mg/kg, iv; assay type: ADME, organism-based; design: dose 0.25 mg/kg, route intravenous; details: in vivo
[5] = Volume of distribution in steady state in Sprague-Dawley rat at 0.25 mg/kg, iv; assay type: ADME, organism-based; design: dose 0.25 mg/kg, route intravenous; details: in vivo, read-out: Vdss
[6] = Clearance in Sprague-Dawley rat at 0.25 mg/kg, iv; assay type: ADME, organism-based; design: dose 0.25 mg/kg, route intravenous; details: in vivo
[7] = Clearance in mouse liver microsomes; assay type: ADME, Microsome
[8] = biological target: Tyrosine-protein kinase BTK (Homo sapiens) (UniProt Q06187); assay: Inhibition of Btk
[9] = biological target: T1, Hepatocyte growth factor receptor (Homo sapiens, UniProt P08581); assay: Inhibition of c-Met by HTRF assay
[10] = biological target: Mitogen-activated protein kinase 3 (Homo sapiens) (UniProt P27361); assay: Inhibition of Erk1
[11] = biological target: Proto-oncogene tyrosine-protein kinase Src (Homo sapiens) (UniProt P12931); assay: Inhibition of Src
[12] = Inhibition of PKAalpha
[13] = biological target: T1, Hepatocyte growth factor receptor
Description: Inhibition of HGF-mediated c-Met phosphorylation in serum-starved human PC2 cells

[14] = Drug level in orally dosed mouse plasma after 6 hrs; assay type: ADME, organism-based; details: po
[15] = biological target: Insulin-like growth factor 1 receptor (Homo sapiens) (UniProt P08069); assay: Inhibition of IGF1R
[16] = biological target: Tyrosine-protein kinase ABL1 (Homo sapiens) (UniProt P00519); assay: Inhibition of Abl
[17] = biological target: Mast/stem cell growth factor receptor Kit (Homo sapiens) (UniProt P10721); assay: Inhibition of cKit
[18] = biological target: Ribosomal protein S6 kinase alpha-5 (Homo sapiens) (UniProt O75582); assay: Inhibition of Msk1
[19] = biological target: Angiopoietin-1 receptor (Homo sapiens) (UniProt Q02763); assay: Inhibition of Tie2
[20] = biological target: Tyrosine-protein kinase Lck (Homo sapiens) (UniProt P06239); assay: Inhibition of Lck
[21] = biological target: Vascular endothelial growth factor receptor 2 (Homo sapiens) (UniProt P35968); assay: Inhibition of KDR
Mus musculus = assay: Inhibition of HGF-mediated c-Met phosphorylation in orally dosed mouse liver; assay type: functional; details: po
[22] = biological target: Aurora kinase A (Homo sapiens) (UniProt O14965); assay: Inhibition of Aur2
[23] = biological target: Mitogen-activated protein kinase 9 (Homo sapiens) (UniProt P45984); assay: Inhibition of JNK2
[24] = biological target: Cyclin-dependent kinase 5 (Homo sapiens) (UniProt Q00535); assay: Inhibition of CDK5
[25] = biological target: RAC-alpha serine/threonine-protein kinase (Homo sapiens) (UniProt P31749); assay: Inhibition of PKBalpha
[26] = biological target: Tyrosine-protein kinase JAK2 (Homo sapiens) (UniProt O60674); assay: Inhibition of Jak2
[27] = Inhibition of p38
[28] = Volume of distribution in steady state in Sprague-Dawley rat at 0.5 mg/kg, iv; assay type: ADME, organism-based; design: dose 0.5 mg/kg, route intravenous; details: in vivo, read-out: Vdss
[29] = Clearance in Sprague-Dawley rat at 0.5 mg/kg, iv; assay type: ADME, organism-based; design: dose 0.5 mg/kg, route intravenous; details: in vivo
[30] = Half life in Sprague-Dawley rat at 0.5 mg/kg, iv; assay type: ADME, organism-based; design: dose 0.5 mg/kg, route intravenous; details: in vivo

`COc1ccc2c(OCc3nnc4ccc(-c5cc(C)ns5)nn34)ccnc2c1` showed a microsomal CLint [1] of 420 µL/min/mg, an AUC(0-inf) [2] of 5100 ng·h/mL and a bioavailability [3] of 59%. The half-life [4] was 2.58 h, the Vd [5] was 0.35 L/kg and the clearance [6] was 4 mL/min/kg. For the same molecule, the microsomal CLint [7] was 173 µL/min/mg.

For `COc1ccc2c(OCc3nnc4ccc(-c5cc(F)c(F)c(F)c5)nn34)ccnc2c1`, the Activity [8] was > 10 µM, the IC50 [9] was 4 nM and the Activity [10] was > 10 µM. For the same molecule, the Activity [11] was > 10 µM, the Activity [12] was > 10 µM and the IC50 [13] was 7 nM. For the same molecule, the concentration at 6 h [14] was 6.7 µM, the microsomal CLint [1] was 190 µL/min/mg and the AUC(0-inf) [2] was 7840 ng·h/mL. The Activity [15] was > 10 µM, the bioavailability [3] was 22% and the Activity [16] was > 10 µM. The Activity [17] was > 10 µM, the half-life [4] was 3.5 h and the Activity [18] was > 10 µM. For the same molecule, the Activity [19] was > 10 µM, the Activity [20] was > 10 µM and the Activity [21] was > 10 µM. For the same molecule, the Vd [5] was 0.152 L/kg, the ED90 (Mus musculus) was 30 mg/kg and the Activity [22] was > 10 µM. The Activity [23] was > 10 µM, the Activity [24] was > 10 µM and the Activity [25] was > 10 µM. The clearance [6] was 0.967 mL/min/kg, the Activity [26] was > 10 µM and the Activity [27] was > 10 µM. For the same molecule, the microsomal CLint [7] was 156 µL/min/mg.

For `COc1ccc2c(OCc3nnc4ccc(-c5ccccc5)nn34)ccnc2c1` [AMG-208], the IC50 [13] was 46 nM, the Vd [28] was 0.38 L/kg and the microsomal CLint [1] was 131 µL/min/mg. The AUC(0-inf) [2] was 2520 ng·h/mL, the bioavailability [3] was 43% and the clearance [29] was 6.17 mL/min/kg. The half-life [30] was 1 h and the microsomal CLint [7] was 122 µL/min/mg.
